target: T1, Jak2 (Homo sapiens, UniProt O60674); assay: JAK kinase assay (ELISA or Alphascreen), JAK2 kinase domain; assay type: biochemical; settings: capacity to inhibit 50% of JAK activity at 20 μM, standard conditions
T1 construct: The kinase domain of humanJAK2 was amplified from U937mRNA; His tag (from the pFastBac HTc vector; purified on nickel chelate); made in house; host or cells: baculovirus; Sf9 for virus, High Five insect cells for production
Protocol: (§1) For screening purposes, compounds were diluted in 96 well plates at a concentration of 20 μM. Plates were warmed at 37° C. for 30 minutes before assay.
The kinase domain of humanJAK2 was amplified from U937mRNA using the polymerase chain reaction with the following primers: […]
JAK2 PCR products were cloned into the pFastBac HTc expression vector (Gibco®) via the Sal I and Not I sites. The JAK2 plasmid was then transformed into competent DH10Bac cells (Gibco®), and the recombinant baculovirus produced prepared for transfection into Sf9 insect cells.
Baculovirus preparations from each of the JAK family members were infected into five litres of High Five cells (Invitrogen) grown in High Five serum free medium (Invitrogen) to a cell density of approximately 1-2×10^6 cells/ml. Cells are infected with virus at a MOI of 0.8-3.0. Cells were harvested and lysed. […]
Kinase assays were performed in a 96 well capture-based ELISA assay or in 384 well Optiplates (Packard) using an Alphascreen Protein Tyrosine Kinase kit. […] In the ELISA assay tyrosine phosphorylation was quantitated following transfer to an avidin coated ELISA plate using peroxidase-linked anti-phospho-tyrosine antibody PY20. […] The ELISA plates were read on a BMG Fluorostar, the Alphascreen plates were read on a Packard Fusion Alpha. […]

T1 sequence (O60674 849-1124 limits assumed): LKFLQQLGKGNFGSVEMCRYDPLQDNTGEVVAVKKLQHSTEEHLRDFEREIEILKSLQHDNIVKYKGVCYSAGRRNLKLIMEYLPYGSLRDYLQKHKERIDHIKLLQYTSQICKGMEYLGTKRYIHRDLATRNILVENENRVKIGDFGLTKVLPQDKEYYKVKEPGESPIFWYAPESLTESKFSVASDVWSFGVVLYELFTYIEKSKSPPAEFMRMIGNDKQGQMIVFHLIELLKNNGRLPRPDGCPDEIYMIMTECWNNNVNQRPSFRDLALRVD

Row | Structure (SMILES) | Jak2
1 | C=CC(=O)Nc1ccc2ncn(-c3cncc(N[C@@H](C)c4ccccc4)n3)c2c1 [N-[1-(6-([(1S)-1-Phenylethyl]amino]pyrazin-2-yl)-1H-benzimidazol-6-yl)acrylamide] | + (Compounds that exhibited a capacity to inhibit 50% of JAK activity at a concentration of 20 μM (measured under standard conditions, see Methods), are designated as “+”)

target: T2, Jak3 (Homo sapiens, UniProt P52333); assay: JAK kinase assay (ELISA or Alphascreen), JAK3 kinase domain; assay type: biochemical; settings: after 20 minute incubation with enzyme (prior to addition of ATP); read-out: apparent “IC50”
T2 construct: The kinase domain of humanJAK3 was amplified from U937mRNA; His tag (from the pFastBac HTb vector; purified on nickel chelate); made in house; host or cells: baculovirus; Sf9 for virus, High Five insect cells for production
T2 sequence (P52333 822-1111 limits assumed): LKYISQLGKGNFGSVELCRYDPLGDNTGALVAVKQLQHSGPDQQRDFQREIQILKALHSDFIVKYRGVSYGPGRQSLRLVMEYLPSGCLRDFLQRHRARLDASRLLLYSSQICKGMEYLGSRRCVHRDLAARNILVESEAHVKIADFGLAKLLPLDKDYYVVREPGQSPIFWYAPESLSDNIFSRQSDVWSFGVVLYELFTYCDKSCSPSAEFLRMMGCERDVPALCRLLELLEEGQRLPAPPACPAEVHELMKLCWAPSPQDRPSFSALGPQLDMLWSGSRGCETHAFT
Protocol: as §1
The kinase domain of humanJAK3 was amplified from U937mRNA using the polymerase chain reaction with the following primers: […]
JAK3 PCR products were cloned into the pFastBac HTb expression vector (Gibco®) via the Xho I and Kpn I sites. The JAK3 plasmid was then transformed into competent DH10Bac cells (Gibco®), and the recombinant baculovirus produced prepared for transfection into Sf9 insect cells.
Baculovirus preparations from each of the JAK family members were infected into five litres of High Five cells (Invitrogen) grown in High Five serum free medium (Invitrogen) to a cell density of approximately 1-2×10^6 cells/ml. Cells are infected with virus at a MOI of 0.8-3.0. Cells were harvested and lysed. JAK kinase domains were purified by affinity chromatography on a Probond (Invitrogen) nickel chelate affinity column.
Kinase assays were performed in a 96 well capture-based ELISA assay or in 384 well Optiplates (Packard) using an Alphascreen Protein Tyrosine Kinase kit. In either case using approximately 1.5 μg of affinity purified PTK domain in the presence of 50 mM HEPES, pH 7.5, 10 mM MgCl2, 150 mM NaCl and 10 μM-1 mM ATP. The biotinylated substrate biotin-EGPWLEEEEEAYGWMDF-NH2 (SEQ ID NO:9) (final concentration 5 μM) was used as substrate. In the ELISA assay tyrosine phosphorylation was quantitated following transfer to an avidin coated ELISA plate using peroxidase-linked anti-phospho-tyrosine antibody PY20. In the Alphascreen assay, Alphascreen phosphotyrosine acceptor beads followed by streptavidin donor beads were added under subdued light. The ELISA plates were read on a BMG Fluorostar, the Alphascreen plates were read on a Packard Fusion Alpha. […] Inhibitors were added in aqueous DMSO, with DMSO concentrations never exceeding 1%.

Row | IC50 [nM] | Structure (SMILES)
2 | ~40 | C=CC(=O)Nc1ccc2ncn(-c3cncc(NC(C)(C)C)n3)c2c1 [Example 20, N-{1-[6-(tert-Butylamino)pyrazin-2-yl]-1-H-benzimidazol-6-yl}acrylamide]

same assay, conditions: after 90 min pre-incubation; read-out: apparent “IC50”

Row | IC50 [nM] | Structure (SMILES)
3 | 7 | C=CC(=O)Nc1ccc2ncn(-c3cncc(NC(C)(C)C)n3)c2c1 [Example 20, N-{1-[6-(tert-Butylamino)pyrazin-2-yl]-1-H-benzimidazol-6-yl}acrylamide]

same assay, conditions: capacity to inhibit 50% of JAK activity at 20 μM, standard conditions

Row | Structure (SMILES) | inhibition at 20 µM [%] | Jak3
4 | C=CC(=O)Nc1ccc2ncn(-c3cncc(N[C@@H](C)CC)n3)c2c1 | > 50 | –
5 | C#CC(=O)Nc1ccc2ncn(-c3cncc(NC(C)(C)C)n3)c2c1 | > 50 | –
6 | C=CC(=O)Nc1ccc2ncn(-c3cncc(N[C@H](C)CC)n3)c2c1 | > 50 | –
7 | C=CC(=O)Nc1ccc2ncn(-c3cncc(NCC4CC4)n3)c2c1 | > 50 | –
8 | C=C(C)C(=O)Nc1ccc2ncn(-c3cncc(NC(C)(C)C)n3)c2c1 | > 50 | –
9 | C=CC(=O)Nc1ccc2ncn(-c3cncc(-c4ccncc4)n3)c2c1 | > 50 | –
10 | C=CC(=O)Nc1ccc2ncn(-c3cncc(N(C)C)n3)c2c1 | > 50 | –
11 | C=CC(=O)Nc1ccc2ncn(-c3cncc(-c4cccnc4)n3)c2c1 | > 50 | –
12 | C=CC(=O)Nc1ccc2ncn(-c3cncc(N4CCCC4)n3)c2c1 | > 50 | –
13 | C=CC(=O)Nc1ccc2ncn(-c3cncc(-c4ccc(C)o4)n3)c2c1 | > 50 | –
14 | C=CC(=O)Nc1ccc2ncn(-c3cncc(N4CCCCC4)n3)c2c1 | > 50 | –
15 | C=CC(=O)Nc1ccc2ncn(-c3cncc(N(C)C(C)C)n3)c2c1 | > 50 | –
16 | C=CC(=O)Nc1ccc2ncn(-c3cncc(Nc4ccccc4)n3)c2c1 [N-[1-(6-Anilinopyrazin-2-yl)-1H-benzimidazol-6-yl]acrylamide] | – | + (Compounds that exhibited a capacity to inhibit 50% of JAK activity at a concentration of 20 μM (measured under standard conditions, see Methods), are designated as “+”)

The next lines start with results.

Row | inhibition at 20 µM [%] | Structure (SMILES) | Jak3
17 | > 50 | C=CC(=O)Nc1ccc2ncn(-c3cncc(N[C@@H](C)c4ccccc4)n3)c2c1 [N-[1-(6-([(1S)-1-Phenylethyl]amino]pyrazin-2-yl)-1H-benzimidazol-6-yl)acrylamide] | –
18 | > 50 | C=CC(=O)Nc1ccc2ncn(-c3cncc(Cl)n3)c2c1 [N-[1-(6-Chloropyrazin-2-yl)-1H-benzimidazol-6-yl]acrylamide] | –
19 | > 50 | C=CC(=O)Nc1ccc2ncn(-c3cncc(-c4ccccc4)n3)c2c1 [N-[1-(6-Phenylpyrazin-2-yl)-1H-benzimidazol-6-yl]acrylamide] | –
20 | > 50 | C=CC(=O)Nc1ccc2ncn(-c3cncc(-c4ccsc4)n3)c2c1 [N-[1-(6-Thien-3-ylpyrazin-2-yl)-1H-benzimidazol-6-yl]acrylamide] | –
21 | > 50 | C=CC(=O)Nc1ccc2ncn(-c3cncc(N4CCOCC4)n3)c2c1 [N-[1-(6-morpholin-4-ylpyrazin-2-yl)-1H-benzimidazol-6-yl]acrylamide] | –
22 | > 50 | C=CC(=O)Nc1ccc2ncn(-c3cncc(-c4cn[nH]c4)n3)c2c1 [N-{1-[6-(1H-Pyrazol-4-yl)pyrazin-2-yl]-1H-benzimidazol-6-yl}acrylamide] | –
23 | > 50 | C=CC(=O)Nc1ccc2ncn(-c3cncc(-c4ccc(F)c(Cl)c4)n3)c2c1 [N-{1-[6-(3-Chloro-4-fluorophenyl)pyrazin-2-yl]-1H-benzimidazol-6-yl}acrylamide] | –
24 | > 50 | C=CC(=O)Nc1ccc2ncn(-c3cncc(N4CCN(C)CC4)n3)c2c1 [N-{1-[6-(4-Methylpiperazin-1-yl)pyrazin-2-yl]-1H-benzimidazol-6-yl}acrylamide] | –
25 | > 50 | C=CC(=O)Nc1ccc2ncn(-c3cncc(NC(C)C)n3)c2c1 [N-{1-[6-(Isopropylamino)pyrazin-2-yl]-1H-benzimidazol-6-yl]acrylamide] | –
26 | > 50 | C=CC(=O)Nc1ccc2ncn(-c3cncc(NC)n3)c2c1 [N-{1-[6-(Methylamino)pyrazin-2-yl]-1H-benzimidazol-6-yl}acrylamide] | –
27 | > 50 | C=CC(=O)Nc1ccc2ncn(-c3cncc(NC(C)(C)C)n3)c2c1 [drawing 98] | –
